{
  "source": "patent US12486270B2",
  "about": "“Receptor tyrosine kinase inhibitors for treatment of protein kinase modulation-responsive disease or disorder” (THE UNITED STATES OF AMERICA, as represented by the …, priority 2019, dated 2025)",
  "key": {"EphA2 [1]": {"molecular_target": "T1, EphA2 (Homo sapiens (Human), UniProt P29317)", "T1 sequence (P29317 24-976)": "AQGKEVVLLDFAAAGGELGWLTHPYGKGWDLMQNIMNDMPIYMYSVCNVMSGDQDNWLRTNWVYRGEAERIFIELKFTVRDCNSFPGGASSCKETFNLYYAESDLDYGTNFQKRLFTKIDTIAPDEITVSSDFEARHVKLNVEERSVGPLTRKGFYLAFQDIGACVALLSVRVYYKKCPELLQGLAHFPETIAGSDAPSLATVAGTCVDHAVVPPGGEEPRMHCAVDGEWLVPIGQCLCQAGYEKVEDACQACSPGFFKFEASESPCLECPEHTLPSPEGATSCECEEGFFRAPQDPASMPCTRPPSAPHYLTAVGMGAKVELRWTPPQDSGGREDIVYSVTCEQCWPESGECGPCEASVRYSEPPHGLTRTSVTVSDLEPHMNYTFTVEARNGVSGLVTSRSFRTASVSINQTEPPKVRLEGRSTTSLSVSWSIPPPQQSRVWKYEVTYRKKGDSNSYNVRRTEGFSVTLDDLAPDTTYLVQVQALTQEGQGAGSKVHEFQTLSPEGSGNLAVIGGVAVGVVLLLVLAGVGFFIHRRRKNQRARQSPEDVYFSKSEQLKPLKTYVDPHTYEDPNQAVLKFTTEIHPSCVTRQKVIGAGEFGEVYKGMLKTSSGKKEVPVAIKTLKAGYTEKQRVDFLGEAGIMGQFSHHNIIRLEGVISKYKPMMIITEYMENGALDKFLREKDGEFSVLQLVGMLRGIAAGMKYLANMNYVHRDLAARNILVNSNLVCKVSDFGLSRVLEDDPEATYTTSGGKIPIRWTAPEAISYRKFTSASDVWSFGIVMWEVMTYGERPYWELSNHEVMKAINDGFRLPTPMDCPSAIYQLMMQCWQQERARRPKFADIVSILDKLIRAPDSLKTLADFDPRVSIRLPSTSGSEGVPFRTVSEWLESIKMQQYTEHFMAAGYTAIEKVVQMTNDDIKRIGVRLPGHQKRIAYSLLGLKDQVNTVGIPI", "test": "Binding affinity to EphA2 by microscale thermophoresis (MST)", "details": "towards EphA2", "description": "The binding affinities of the compounds to EphA2 were investigated by microscale thermophoresis (MST) (M. Jerabek-Willemsen et al., J. Mol. Struct. 2014, 1077, 101-113)."}, "[2]": {"tested_on": "SW620 colorectal cancer cell", "test": "Cell death by flow cytometry after DRAQ5/PI staining, colorectal cancer cells (SW620)", "format": "cell-based, human", "details": "72 hours", "procedure": "Cell viability was measured by flow cytometry. Briefly, floating and adherent cells were collected by centrifugation, pelleted and suspended in PBS −/− (ThermoFisher, 10010-049) supplemented with 1% BSA (Sigma, A2153), 5 mM EDTA (Qualify Biological, 351-027), 10 mM glucose (Sigma, D9434) and 10 mM HEPES (Corning, 25-060-CI). After the cells (1×10^6 cells/mL) were stained with 25 μM DRAQ5 (BioLegend, San Diego, CA; 424101) for 60 minutes and 2 μg propidium iodide (ThermoFisher, P3566) for 15 minutes, analysis was performed on a FACSCantoll (BD Biosciences, Franklin Lakes, NJ; 338962). Results were analyzed by FloJo software (FlowJo LLC, Ashland, OR)."}, "SW620 cells": {"tested_on": "SW620 cells", "test": "Cleaved caspase-3 immunofluorescence microscopy in colorectal cancer cells (SW620)", "format": "cell-based, human", "details": "72 hours", "procedure": "Cell viability was also measured by detection of cell-associated cleaved caspase-3. Cells were grown on gelatin-coated glass chamber slides, fixed in 4% paraformaldehyde, immune-stained with rabbit monoclonal antibody to cleaved Caspase 3 (1:100 Cell Signaling Technology) followed by Alexa Fluor 488-conjugated anti-rabbit IgG (1:400 Invitrogen) and mounted with Vectastain containing DAPI (Vector Laboratories). The slides were imaged through a Zeiss LSM780 confocal microscope. Image quantification (cleaved Caspase-3^+ nucleiltotal nuclei) was performed by CellProfiler software."}, "LC3B": {"tested_on": "LC3B", "test": "LC3B autophagy marker by immunoblotting in HT-29 cells", "format": "cell-based, human", "details": "72-hour incubation", "procedure": "Western blotting. Protein lysates were separated by SDS-PAGE and then transferred to a nitrocellulose membrane. After blocking, membranes were incubated overnight with antibodies to LC3 (rabbit Monoclonal antibody, Cell Signaling)."}, "SW620": {"tested_on": "SW620", "test": "Cell cycle analysis by flow cytometry in colorectal cancer cells (SW620)", "format": "cell-based, human", "details": "72 hours; compared to control and NVP/NVP-Iso", "procedure": "Cell cycle was assessed by flow cytometry. Adherent cells were harvested, washed with PBS and fixed for 30 minutes in cold 70% ethanol at 4° C. Cells were washed twice with PBS, treated with 2.5 μg/mL RNaseA (ThermoFisher, 12091039) for 30 minutes at room temperature, and then stained with 10 μg propidium iodide for 15 minutes prior to analysis performed on FACS Canton (BD Biosciences; San Jose, CA) and cell cycled analyzed (FloJo software)."}, "EphB4": {"molecular_target": "EphB4 (Homo sapiens (Human), UniProt P54760)", "sequence (P54760 16-987)": "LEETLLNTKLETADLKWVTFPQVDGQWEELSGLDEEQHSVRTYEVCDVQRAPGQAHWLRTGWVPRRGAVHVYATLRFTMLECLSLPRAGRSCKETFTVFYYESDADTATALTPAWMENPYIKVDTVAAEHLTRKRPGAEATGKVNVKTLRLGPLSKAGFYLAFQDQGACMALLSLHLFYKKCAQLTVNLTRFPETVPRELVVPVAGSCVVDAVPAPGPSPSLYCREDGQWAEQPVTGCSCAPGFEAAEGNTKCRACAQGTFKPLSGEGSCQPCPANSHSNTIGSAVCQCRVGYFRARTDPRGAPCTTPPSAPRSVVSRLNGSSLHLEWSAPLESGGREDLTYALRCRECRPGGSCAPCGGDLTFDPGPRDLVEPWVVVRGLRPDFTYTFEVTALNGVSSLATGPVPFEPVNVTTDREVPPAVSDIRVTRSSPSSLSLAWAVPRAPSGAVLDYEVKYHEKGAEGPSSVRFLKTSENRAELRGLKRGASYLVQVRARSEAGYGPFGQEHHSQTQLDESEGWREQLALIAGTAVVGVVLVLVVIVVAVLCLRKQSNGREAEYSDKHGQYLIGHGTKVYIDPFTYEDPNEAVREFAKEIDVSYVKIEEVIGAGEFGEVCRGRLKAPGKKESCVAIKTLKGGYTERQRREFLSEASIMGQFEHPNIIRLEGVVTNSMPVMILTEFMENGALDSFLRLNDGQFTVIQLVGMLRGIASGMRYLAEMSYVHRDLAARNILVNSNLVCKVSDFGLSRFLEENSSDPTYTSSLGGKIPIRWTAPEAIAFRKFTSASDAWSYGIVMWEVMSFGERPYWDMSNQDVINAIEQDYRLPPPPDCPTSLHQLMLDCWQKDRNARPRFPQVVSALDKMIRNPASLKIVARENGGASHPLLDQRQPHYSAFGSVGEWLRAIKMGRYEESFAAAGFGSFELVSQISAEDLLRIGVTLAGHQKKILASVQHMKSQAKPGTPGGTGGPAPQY", "test": "Endogenous EphB4 tyrosine phosphorylation by ELISA in HT29 cell lysates", "format": "cell-based", "details": "four hours treatment", "procedure": "(§1) ELISA. ELISA plates (ThermoFisher Scientific, Immulon 4HBX, 3855) were coated overnight at 4° C. with capture antibody 75 ng/well in PBS, and blocked with 5% BSA (Sigma-Aldrich, St. Louis, MO) in PBS for two hours at room temperature. Capture antibodies for EphB4 was goat polyclonal antibody (R&D Systems AF3038); for EphA2 was goat polyclonal antibody (R&D Systems AF3035); 10 ug of cell lysate was applied to the ELISA well for two hours at room temperature. The amount of tyrosine phosphorylation was measured with pTyr-HRP antibody (R&D Systems, HAM1676). The ELISA was developed with 3,3′,5,5′-Tetramethylbenzidine (TMB) (ThermoFisher Scientific, 7588927) for 15 minutes and stopped with 1M H2SO4 (Sigma-Aldrich, 258105). Absorbance at 450 nm was measured using POLARstar Optima plate reader (BMG Labtech, Cary, NC). All conditions were tested in duplicate. pEphB2 was measured by ELISA (Ray Biotech, PEL-EphB2-Y) according to the manufacturer's recommendations."}, "EphB2": {"molecular_target": "EphB2 (Homo sapiens (Human), UniProt P29323)", "sequence (P29323 19-1055)": "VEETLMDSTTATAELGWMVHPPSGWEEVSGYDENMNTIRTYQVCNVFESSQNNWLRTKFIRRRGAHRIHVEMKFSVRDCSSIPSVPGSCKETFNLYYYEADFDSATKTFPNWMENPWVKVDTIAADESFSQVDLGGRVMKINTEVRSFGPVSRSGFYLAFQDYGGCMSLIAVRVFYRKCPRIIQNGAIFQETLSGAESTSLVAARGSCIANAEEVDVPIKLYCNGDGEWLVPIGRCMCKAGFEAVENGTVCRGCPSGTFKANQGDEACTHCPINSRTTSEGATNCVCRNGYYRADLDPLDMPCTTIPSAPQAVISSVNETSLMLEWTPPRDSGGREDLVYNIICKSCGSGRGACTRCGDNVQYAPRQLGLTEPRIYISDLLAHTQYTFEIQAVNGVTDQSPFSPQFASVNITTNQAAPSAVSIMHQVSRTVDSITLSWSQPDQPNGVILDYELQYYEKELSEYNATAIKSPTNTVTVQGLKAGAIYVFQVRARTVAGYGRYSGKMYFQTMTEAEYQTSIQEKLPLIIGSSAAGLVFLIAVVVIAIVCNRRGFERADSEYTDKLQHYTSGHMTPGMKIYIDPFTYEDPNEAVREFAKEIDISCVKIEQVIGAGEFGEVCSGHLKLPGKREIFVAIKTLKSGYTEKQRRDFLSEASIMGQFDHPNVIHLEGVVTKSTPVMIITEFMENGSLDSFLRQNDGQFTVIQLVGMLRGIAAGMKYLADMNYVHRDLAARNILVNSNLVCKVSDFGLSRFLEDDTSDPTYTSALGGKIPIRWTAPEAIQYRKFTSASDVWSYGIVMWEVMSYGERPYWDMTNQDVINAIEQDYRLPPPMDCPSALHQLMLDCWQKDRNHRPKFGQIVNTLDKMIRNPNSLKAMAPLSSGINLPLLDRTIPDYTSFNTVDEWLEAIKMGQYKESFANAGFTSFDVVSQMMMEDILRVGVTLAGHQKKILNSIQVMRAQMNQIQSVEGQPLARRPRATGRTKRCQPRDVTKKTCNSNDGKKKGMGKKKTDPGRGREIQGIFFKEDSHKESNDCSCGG", "test": "Endogenous EphB2 tyrosine phosphorylation by ELISA in Colo-205 cell lysates", "format": "cell-based", "details": "four hours treatment", "procedure": "as §1"}, "EphA2 [3]": {"molecular_target": "T1, EphA2", "test": "Endogenous EphA2 tyrosine phosphorylation by ELISA in RKO cell lysates", "format": "cell-based", "details": "four hours treatment", "procedure": "as §1"}},
  "data": [
    {"smiles": "Cc1ccc(C(=O)Nc2cccc(C(F)(F)F)c2)cc1Nc1nc(-c2cnccn2)nc2c1cnn2C", "note": "[@1, 4-Methyl-3-((1-methyl-6-(pyrazin-2-yl)-1H-pyrazolo[3,4-d]pyrimidin-4-yl)amino)-N-(3-(trifluoromethyl)phenyl)benzamide]", "values": [
      {"measurement": "Kd", "setting": "EphA2 [1]", "value": 3, "unit": "nM"},
      {"measurement": "colorectal cancer cell death by flow cytometry (DRAQ5/PI)", "setting": "[2]", "value": "no or minimal colorectal cancer cell death"},
      {"measurement": "cleaved caspase-3 detection in treated cells", "setting": "SW620 cells", "value": "only in a minority of cells"},
      {"measurement": "induction of autophagosome marker LC3B (immunoblotting)", "setting": "LC3B", "value": "failure"},
      {"measurement": "distribution of cells within the cell cycle", "setting": "SW620", "value": "marked reduction of the proportion of cells within the G2M phase"},
      {"measurement": "inhibitory activity for p-EphB4 compared to NVP", "setting": "EphB4", "value": "comparable or only slightly reduced inhibitory activity"},
      {"measurement": "inhibitory activity for p-EphB2 compared to NVP", "setting": "EphB2", "value": "comparable or only slightly reduced inhibitory activity"},
      {"measurement": "inhibitory activity for p-EphA2 compared to NVP", "setting": "EphA2 [3]", "value": "comparable or only slightly reduced inhibitory activity"}
    ]}
  ]
}
